What was measured:
Test in all cases: cells
QIMR-WIL = type: functional, cell-based; conditions: Homo sapiens;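 also: growth inhibition of QIMR-WIL cells, read out with a cell viability assay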
Description: SANGER: Inhibition of human QIMR-WIL cell growth in a cell viability assay.

RPMI-7951 = type: functional, cell-based, Homo sapiens; conditions: Homo sapiens, RPMI-7951
Description: SANGER: Inhibition of human RPMI-7951 cell growth in a cell viability assay.

BB49-HNC = type: functional, cell-based, Homo sapiens; conditions: Homo sapiens, BB49-HNC;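 also: cell viability assay read-out, reported as inhibition of BB49-HNC cell growth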
Description: SANGER: Inhibition of human BB49-HNC cell growth in a cell viability assay.

SW1417 = type: functional, cell-based, Homo sapiens; conditions: Homo sapiens, SW1417;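 also: growth inhibition of human SW1417 cells, read out with a cell viability assay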
Description: SANGER: Inhibition of human SW1417 cell growth in a cell viability assay.

NCI-H2452 = type: functional, cell-based, Homo sapiens; conditions: Homo sapiens, NCI-H2452;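 also: growth inhibition of NCI-H2452 cells, read out with a cell viability assay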
Description: SANGER: Inhibition of human NCI-H2452 cell growth in a cell viability assay.

YKG-1 = type: functional, cell-based, Homo sapiens; conditions: Homo sapiens, YKG-1;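 also: cell growth inhibition, read out with a viability assay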
Description: SANGER: Inhibition of human YKG-1 cell growth in a cell viability assay.

GR-ST = type: functional, cell-based; conditions: Homo sapiens
Description: SANGER: Inhibition of human GR-ST cell growth in a cell viability assay.

IST-MEL1 = type: functional, cell-based, Homo sapiens; conditions: Homo sapiens, IST-MEL1;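 also: growth inhibition of the cell line, read out with a cell viability assay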
Description: SANGER: Inhibition of human IST-MEL1 cell growth in a cell viability assay.

RH-1 = type: functional, cell-based, Homo sapiens; conditions: Homo sapiens, RH-1;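 also: growth inhibition of human RH-1 cells, read out with a cell viability assay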
Description: SANGER: Inhibition of human RH-1 cell growth in a cell viability assay.

EW-13 = type: functional, cell-based; conditions: Homo sapiens;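 also: growth inhibition of EW-13 cells, read out with a cell viability assay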
Description: SANGER: Inhibition of human EW-13 cell growth in a cell viability assay.

EW-11 = type: functional, cell-based, Homo sapiens; conditions: Homo sapiens, EW-11;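 also: growth inhibition of human EW-11 cells, measured with a cell viability assay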
Description: SANGER: Inhibition of human EW-11 cell growth in a cell viability assay.

SW 962 = type: functional, cell-based, Homo sapiens; conditions: Homo sapiens, SW 962;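 also: growth inhibition of human SW962 cells, read out by a cell viability assay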
Description: SANGER: Inhibition of human SW962 cell growth in a cell viability assay.

MOLT-16 = type: functional, cell-based; conditions: Homo sapiens;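 also: growth inhibition of human MOLT-16 cells, read out with a cell viability assay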
Description: SANGER: Inhibition of human MOLT-16 cell growth in a cell viability assay.

MFH-ino = type: functional, cell-based; conditions: Homo sapiens;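 also: growth inhibition of human MFH-ino cells, read out by a cell viability assay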
Description: SANGER: Inhibition of human MFH-ino cell growth in a cell viability assay.

HL-60 = type: functional, cell-based; conditions: Homo sapiens;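 also: growth inhibition of human HL-60 cells, read out with a cell viability assay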
Description: SANGER: Inhibition of human HL-60 cell growth in a cell viability assay.

NCI-H1304 = type: functional, cell-based; conditions: Homo sapiens;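 also: growth inhibition of the cancer cell line, measured in a cell viability assay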
Description: SANGER: Inhibition of human NCI-H1304 cell growth in a cell viability assay.

KYSE-410 = type: functional, cell-based, Homo sapiens; conditions: Homo sapiens, KYSE-410;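 also: growth inhibition of KYSE-410 cells, measured through a cell viability readout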
Description: SANGER: Inhibition of human KYSE-410 cell growth in a cell viability assay.

SK-N-FI = type: functional, cell-based, Homo sapiens; conditions: Homo sapiens, SK-N-FI;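 also: cell viability assay measuring growth inhibition of human SK-N-FI cells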
Description: SANGER: Inhibition of human SK-N-FI cell growth in a cell viability assay.

SW780 = type: functional, cell-based, Homo sapiens; conditions: Homo sapiens, SW780;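 also: growth inhibition of the cells, read out with a cell viability assay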
Description: SANGER: Inhibition of human SW780 cell growth in a cell viability assay.

MOLT-4 = type: functional, cell-based; conditions: Homo sapiens;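 also: growth inhibition of MOLT-4 cells, determined with a cell viability readout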
Description: SANGER: Inhibition of human MOLT-4 cell growth in a cell viability assay.

ML-2 = type: functional, cell-based; conditions: Homo sapiens;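 also: growth inhibition of ML-2 cells, measured with a cell viability readout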
Description: SANGER: Inhibition of human ML-2 cell growth in a cell viability assay.

GI-1 = type: functional, cell-based, Homo sapiens; conditions: Homo sapiens, GI-1;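 also: growth inhibition of human GI-1 cells, measured with a cell viability readout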
Description: SANGER: Inhibition of human GI-1 cell growth in a cell viability assay.

RS4-11 = type: functional, cell-based; conditions: Homo sapiens;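 also: growth inhibition of RS4-11 cells, read out by a cell viability assay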
Description: SANGER: Inhibition of human RS4-11 cell growth in a cell viability assay.

SK-OV-3 = type: functional, cell-based, Homo sapiens; conditions: Homo sapiens, SK-OV-3;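 also: growth inhibition of SK-OV-3 human cells, read out with a cell viability assay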
Description: SANGER: Inhibition of human SK-OV-3 cell growth in a cell viability assay.

HPAF-II = type: functional, cell-based, Homo sapiens; conditions: Homo sapiens, HPAF-II;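 also: growth inhibition of HPAF-II cells, read out with a cell viability assay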
Description: SANGER: Inhibition of human HPAF-II cell growth in a cell viability assay.

LB2518-MEL = type: functional, cell-based, Homo sapiens; conditions: Homo sapiens, LB2518-MEL;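 also: growth inhibition of human LB2518-MEL cells, measured with a cell viability assay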
Description: SANGER: Inhibition of human LB2518-MEL cell growth in a cell viability assay.

MHH-NB-11 = type: functional, cell-based, Homo sapiens; conditions: Homo sapiens, MHH-NB-11;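 also: growth inhibition of human MHH-NB-11 cells, read out by a cell viability assay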
Description: SANGER: Inhibition of human MHH-NB-11 cell growth in a cell viability assay.

NB7 = type: functional, cell-based; conditions: Homo sapiens;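 also: growth inhibition of NB7 cells, read out with a cell viability assay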
Description: SANGER: Inhibition of human NB7 cell growth in a cell viability assay.

TE-5 = type: functional, cell-based, Homo sapiens; conditions: Homo sapiens, TE-5;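 also: inhibition of cell growth, read out by a cell viability assay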
Description: SANGER: Inhibition of human TE-5 cell growth in a cell viability assay.

5637 = type: functional, cell-based, Homo sapiens; conditions: Homo sapiens
Description: SANGER: Inhibition of human 5637 cell growth in a cell viability assay.

BFTC-909 = type: functional, cell-based, Homo sapiens; conditions: Homo sapiens, BFTC-909
Description: SANGER: Inhibition of human BFTC-909 cell growth in a cell viability assay.

D283 Med = type: functional, cell-based, Homo sapiens; conditions: Homo sapiens, D283 Med
Description: SANGER: Inhibition of human D-283MED cell growth in a cell viability assay.

T84 = type: functional, cell-based, Homo sapiens; conditions: Homo sapiens, T84;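 also: growth inhibition measured with a cell viability readout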
Description: SANGER: Inhibition of human T84 cell growth in a cell viability assay.

BT-20 = type: functional, cell-based, Homo sapiens; conditions: Homo sapiens, BT-20;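 also: cell viability assay measuring suppression of growth in human BT-20 cells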
Description: SANGER: Inhibition of human BT-20 cell growth in a cell viability assay.

KG-1 = type: functional, cell-based; conditions: Homo sapiens
Description: SANGER: Inhibition of human KG-1 cell growth in a cell viability assay.

SW 954 = type: functional, cell-based, Homo sapiens; conditions: Homo sapiens, SW 954;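 also: growth inhibition of SW954 human cancer cells, read out as cell viability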
Description: SANGER: Inhibition of human SW954 cell growth in a cell viability assay.

SK-MEL-24 = type: functional, cell-based; conditions: Homo sapiens;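 also: growth inhibition read out by a cell viability assay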
Description: SANGER: Inhibition of human SK-MEL-24 cell growth in a cell viability assay.

CHL-1 = type: functional, cell-based, Homo sapiens; conditions: Homo sapiens, CHL-1;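 also: cell growth inhibition, read out with a cell viability assay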
Description: SANGER: Inhibition of human CHL-1 cell growth in a cell viability assay.

ES5 = type: functional, cell-based, Homo sapiens; conditions: Homo sapiens, ES5;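 also: growth inhibition of human ES5 cells, read out by a cell viability assay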
Description: SANGER: Inhibition of human ES5 cell growth in a cell viability assay.

T47D = type: functional, cell-based, Homo sapiens; conditions: Homo sapiens, T47D;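 also: growth inhibition of human T47D cells, measured with a cell viability assay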
Description: SANGER: Inhibition of human T47D cell growth in a cell viability assay.

VA-ES-BJ = type: functional, cell-based, Homo sapiens; conditions: Homo sapiens, VA-ES-BJ;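 also: growth inhibition of the VA-ES-BJ cell line, read out by a cell viability assay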
Description: SANGER: Inhibition of human VA-ES-BJ cell growth in a cell viability assay.

OVCAR-4 = type: functional, cell-based, Homo sapiens; conditions: Homo sapiens, OVCAR-4;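 also: growth inhibition of human OVCAR-4 cells, measured with a cell viability assay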
Description: SANGER: Inhibition of human OVCAR-4 cell growth in a cell viability assay.

HSC-3 = type: functional, cell-based, Homo sapiens; conditions: Homo sapiens, HSC-3
Description: SANGER: Inhibition of human HSC-3 cell growth in a cell viability assay.

KYSE-150 cell line = type: functional, cell-based, Homo sapiens; conditions: Homo sapiens, KYSE-150;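 also: growth inhibition of human KYSE-150 cells, read out with a cell viability assay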
Description: SANGER: Inhibition of human KYSE-150 cell growth in a cell viability assay.

HOP-92 = type: functional, cell-based, Homo sapiens; conditions: Homo sapiens, HOP-92;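 also: cell viability readout, with IC50 reflecting inhibition of HOP-92 cell growth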
Description: SANGER: Inhibition of human HOP-92 cell growth in a cell viability assay.

DBTRG-05MG = type: functional, cell-based, Homo sapiens; conditions: Homo sapiens, DBTRG-05MG;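 also: cell viability assay measuring growth inhibition of human DBTRG-05MG cells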
Description: SANGER: Inhibition of human DBTRG-05MG cell growth in a cell viability assay.

SK-HEP1 = type: functional, cell-based, Homo sapiens, SK-HEP-1; conditions: Homo sapiens, SK-HEP1;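 also: cell viability readout used to quantify reduction in proliferation of human SK-HEP-1 cells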
Description: SANGER: Inhibition of human SK-HEP-1 cell growth in a cell viability assay.

MDA-MB-231 = type: functional, cell-based, Homo sapiens; conditions: Homo sapiens, MDA-MB-231
Description: SANGER: Inhibition of human MDA-MB-231 cell growth in a cell viability assay.

HO-1-N-1 = type: functional, cell-based, Homo sapiens; conditions: Homo sapiens, HO-1-N-1;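 also: growth inhibition of human HO-1-N-1 cells, read out with a cell viability assay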
Description: SANGER: Inhibition of human HO-1-N-1 cell growth in a cell viability assay.

KU812 cell line = type: functional, cell-based; conditions: Homo sapiens;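 also: growth inhibition of KU812 cells, read out with a cell viability assay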
Description: SANGER: Inhibition of human KU812 cell growth in a cell viability assay.

LB996-RCC = type: functional, cell-based; conditions: Homo sapiens
Description: SANGER: Inhibition of human LB996-RCC cell growth in a cell viability assay.

NCI-H69 = type: functional, cell-based; conditions: Homo sapiens;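 also: growth inhibition of the cell line, read out with a cell viability assay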
Description: SANGER: Inhibition of human NCI-H69 cell growth in a cell viability assay.

`Cn1cc(C2=C(c3ccc(Cl)cc3Cl)C(=O)NC2=O)c2ccccc21` [SB-216763] was tested, and the IC50 (QIMR-WIL) was > 10000 nM, the IC50 (RPMI-7951) was > 10000 nM and the IC50 (BB49-HNC) was > 10000 nM. For the same compound, the IC50 (SW1417) was > 10000 nM, the IC50 (NCI-H2452) was > 10000 nM and the IC50 (YKG-1) was > 10000 nM. The IC50 (GR-ST) was > 10000 nM, the IC50 (IST-MEL1) was > 10000 nM and the IC50 (RH-1) was > 10000 nM. For the same compound, the IC50 (EW-13) was > 10000 nM, the IC50 (EW-11) was > 10000 nM and the IC50 (SW 962) was > 10000 nM. The IC50 (MOLT-16) was > 10000 nM, the IC50 (MFH-ino) was > 10000 nM and the IC50 (HL-60) was > 10000 nM. For the same compound, the IC50 (NCI-H1304) was > 10000 nM, the IC50 (KYSE-410) was > 10000 nM and the IC50 (SK-N-FI) was > 10000 nM. The IC50 (SW780) was > 10000 nM, the IC50 (MOLT-4) was > 10000 nM and the IC50 (ML-2) was > 10000 nM. For the same compound, the IC50 (GI-1) was > 10000 nM, the IC50 (RS4-11) was 8240 nM and the IC50 (SK-OV-3) was 9100 nM. For the same compound, the IC50 (HPAF-II) was > 10000 nM, the IC50 (LB2518-MEL) was > 10000 nM and the IC50 (MHH-NB-11) was > 10000 nM. The IC50 (NB7) was > 10000 nM, the IC50 (TE-5) was > 10000 nM and the IC50 5637 was > 10000 nM. For the same compound, the IC50 (BFTC-909) was > 10000 nM, the IC50 (D283 Med) was > 10000 nM and the IC50 (T84) was > 10000 nM. The IC50 (BT-20) was > 10000 nM, the IC50 (KG-1) was > 10000 nM and the IC50 (SW 954) was > 10000 nM. For the same compound, the IC50 (SK-MEL-24) was > 10000 nM, the IC50 (CHL-1) was > 10000 nM and the IC50 (ES5) was > 10000 nM. For the same compound, the IC50 (T47D) was > 10000 nM, the IC50 (VA-ES-BJ) was > 10000 nM and the IC50 (OVCAR-4) was > 10000 nM. The IC50 (HSC-3) was > 10000 nM, the IC50 (KYSE-150 cell line) was > 10000 nM and the IC50 (HOP-92) was > 10000 nM. The IC50 (DBTRG-05MG) was > 10000 nM, the IC50 (SK-HEP1) was > 10000 nM and the IC50 (MDA-MB-231) was > 10000 nM. For the same compound, the IC50 (HO-1-N-1) was > 10000 nM.

In the case of `CCC1=C[C@@H]2CN(C1)Cc1c([nH]c3ccccc13)[C@@](C(=O)OC)(c1cc3c(cc1OC)N(C)[C@H]1[C@@](O)(C(=O)OC)[C@H](OC(C)=O)[C@]4(CC)C=CCN5CC[C@]31[C@@H]54)C2` [VINORELBINE], the IC50 (QIMR-WIL) is reported as 3.04 nM, the IC50 (RPMI-7951) is reported as 8.82 nM and the IC50 (BB49-HNC) is reported as > 64 nM. The IC50 (SW1417) was > 64 nM, the IC50 (NCI-H2452) was > 64 nM and the IC50 (YKG-1) was 3.73 nM. For the same compound, the IC50 (GR-ST) was 8.27 nM, the IC50 (IST-MEL1) was > 64 nM and the IC50 (RH-1) was 11 nM. The IC50 (EW-13) was 6.62 nM, the IC50 (EW-11) was 42.7 nM and the IC50 (SW 962) was 27.8 nM. For the same compound, the IC50 (MOLT-16) was 12.8 nM, the IC50 (KU812 cell line) was 9.3 nM and the IC50 (MFH-ino) was 5.6 nM. For the same compound, the IC50 (HL-60) was > 64 nM, the IC50 (NCI-H1304) was 35.2 nM and the IC50 (KYSE-410) was 6.21 nM. For the same compound, the IC50 (SK-N-FI) was > 64 nM, the IC50 (SW780) was 14.9 nM and the IC50 (MOLT-4) was 6.66 nM. For the same compound, the IC50 (ML-2) was 4.32 nM, the IC50 (GI-1) was 3.54 nM and the IC50 (RS4-11) was 7.99 nM. The IC50 (SK-OV-3) was 8.39 nM, the IC50 (HPAF-II) was 16.6 nM and the IC50 (LB2518-MEL) was > 64 nM. The IC50 (MHH-NB-11) was 17.7 nM, the IC50 (TE-5) was 11.7 nM and the IC50 5637 was 7.55 nM. For the same compound, the IC50 (BFTC-909) was 10.8 nM, the IC50 (D283 Med) was > 64 nM and the IC50 (T84) was 53.9 nM. For the same compound, the IC50 (BT-20) was 12.4 nM, the IC50 (KG-1) was > 64 nM and the IC50 (SW 954) was 5.98 nM. The IC50 (SK-MEL-24) was > 64 nM, the IC50 (CHL-1) was 4.6 nM and the IC50 (LB996-RCC) was > 64 nM. The IC50 (ES5) was > 64 nM, the IC50 (T47D) was > 64 nM and the IC50 (VA-ES-BJ) was 4.23 nM. It also gave an IC50 (OVCAR-4) of 1.75 nM, an IC50 (HSC-3) of 5.62 nM and an IC50 (KYSE-150 cell line) of 3.04 nM. It also gave an IC50 (NCI-H69) of 6.34 nM, an IC50 (HOP-92) of 51.3 nM and an IC50 (DBTRG-05MG) of 3.88 nM. For the same compound, the IC50 (SK-HEP1) was 4.52 nM, the IC50 (MDA-MB-231) was 37.4 nM and the IC50 (HO-1-N-1) was 6.65 nM.

Source: ChEMBL document CHEMBL1201861, “Genomics of Drug Sensitity in Cancer screening data, Wellcome Trust Sanger Institute”
